Results from ChEMBL document CHEMBL5331090, “Modes of action insights from the crystallographic structures of retinoic acid receptor-related orphan receptor-γt (RORγt)” (Eur J Med Chem, 2023).

How the values were obtained:
[1] = target: T1, Nuclear receptor ROR-gamma (Homo sapiens, UniProt P51449); experiment: Antagonist activity at RORgammat LBD (unknown origin) LBD
T1 sequence (P51449 whole entry): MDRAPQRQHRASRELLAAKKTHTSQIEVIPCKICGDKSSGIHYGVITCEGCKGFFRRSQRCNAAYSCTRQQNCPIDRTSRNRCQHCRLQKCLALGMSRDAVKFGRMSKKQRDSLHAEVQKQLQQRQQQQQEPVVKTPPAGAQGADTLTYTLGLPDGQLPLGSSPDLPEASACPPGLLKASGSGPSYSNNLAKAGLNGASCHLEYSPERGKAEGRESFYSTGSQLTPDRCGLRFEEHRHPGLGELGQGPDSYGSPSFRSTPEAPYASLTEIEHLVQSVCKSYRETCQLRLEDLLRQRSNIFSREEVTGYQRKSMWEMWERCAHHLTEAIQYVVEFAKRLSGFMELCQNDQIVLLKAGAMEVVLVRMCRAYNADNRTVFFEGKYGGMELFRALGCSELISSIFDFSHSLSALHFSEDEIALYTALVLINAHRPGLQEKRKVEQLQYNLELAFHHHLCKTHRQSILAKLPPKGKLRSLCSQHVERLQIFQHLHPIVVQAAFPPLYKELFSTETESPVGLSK

[2] = Antagonist activity at RORgammat LBD (unknown origin)/NCoR2 (unknown origin) interaction; parameters: species or system Homo sapiens

## C[C@H]1O[C@@H](O[C@H]2[C@@H](O)C[C@H](O[C@H]3[C@@H](O)C[C@H](O[C@H]4CC[C@@]5(C)[C@H](CC[C@@H]6[C@@H]5C[C@@H](O)[C@]5(C)[C@@H](C7=CC(=O)OC7)CC[C@]65O)C4)O[C@@H]3C)O[C@@H]2C)C[C@H](O)[C@@H]1O [DIGOXIN]
[1]
  IC50: 1800 nM
[2]
  IC50: 3900 nM
